Results taken from patent publication US20220264883A1, “IMIDAZOTHIAZOLE COMPOUNDS AND METHODS FOR TREATING PLANT NEMATODE INFECTIONS” (The Governing Council of the University of Toronto, priority 2019, published 2022).
Values joined by “and” are separate entries in the source; they are usually repeats but may differ in a detail not shown here. Equal values may be shown once.

Columns and labels:
C. elegans [1] = experiment: C. elegans viability at a single concentration (Table 3); format: in vivo; settings: Caenorhabditis elegans; 50 μM (compound If)
Protocol: (§1) Forty microliters of an HB101 bacterial suspension in liquid NGM (see above) was added to each well of a 96-well flat-bottom culture plate, after which approximately 25 synchronized L1 worms, in 10 μl of M9 buffer (see ref. 59 for the recipe), were added to each well. The synchronized L1 worms were obtained from an embryo preparation performed the previous day (see ref. 59 for the protocol). For the L1 assays, 0.5 μl of chemical solution (or DMSO alone) was immediately added to the wells using a multichannel pipette, the final DMSO concentration is 1% (v/v). The worms were incubated for 3 days at 20° C. and the number of viable animals was counted. […] Although the counts were performed after 3 days of incubation in the chemical, it was noted that the L1s were dead within 24 hours of the addition of the chemicals. For the L2/L3 assays, the worms were incubated in the absence of chemical for 1 day at 20° C. until they reached the L2/L3 stage, at which point chemical was added as described above. The worms were then allowed to incubate for 2 days at 20° C. and the number of viable animals was counted as described for the L1 assay. For the L4 assays, the worms were incubated for 2 days at 20° C. before the addition of chemicals. The L4-stage worms were then incubated in chemical for an additional day before quantifying the number of viable animals. The adult assays were performed the same way as the L4 assays, however HT115 E. coli carrying the empty dsRNA expressing vector L4440 was used in place of HB101 and the worms were cultured at 25° C. as opposed to 20° C. for the entirety of the experiment. The HT115 suspension was made by concentrating a bacterial culture, with an OD600 of ˜ 0.8, five-fold with liquid NGM containing 1 mM IPTG and 100 μg/ml carbenicillin. The HT115 cells were induced with 1 mM IPTG for one hour before concentrating with NGM.
(§2) The ability of exemplary compounds of the application to kill C. elegans at 100 μM (except for compound If which was tested at 50 μM) and to affect the mobility of M. chitwoodi at 45 μM was tested as described above for M. incognita infective juveniles. Percent mobility was measured after 2 days of chronic exposure to test compounds (Table 3).

C. elegans [2] = experiment: C. elegans minimum lethal concentration dose-response; format: in vivo, Caenorhabditis elegans; settings: Caenorhabditis elegans, C. elegans viability
Protocol: as §1
Compounds Ia to Im, dose-response assays were performed with C. elegans. 8 of the compounds killed C. elegans with minimum lethal concentrations less than or equal to 100 μM (Table 6). Compounds Ia, Ic, and Ij were the most potently lethal nematicides in this assay, having minimum lethal concentrations of 6.25 μM and below. The positive control nematicide tioxazafen killed nematodes at 3.13 μM and above.

M. chitwoodi [3] = experiment: Meloidogyne chitwoodi infectivity assays (tomato roots in soil); format: in vivo; settings: 45 μM in soil, 8 weeks, egg counts relative to DMSO control
Protocol: An M. incognita population originally collected from grape (Vitis vinifera) in Parlier, Calif., was used for all experiments, and they were maintained on tomato plants (Solanum lycopersicum ‘Rutgers’) as previously described^73. Infective J2 juveniles were collected as described in^73. For the infectivity assays, 90 grams of soil (1:1 sand:loam mix) was added to each cell of several 6-cell plastic garden packs. The soil was drenched with 18 mL of deionized water containing dissolved chemical or DMSO alone. 2,500 infective J2 juveniles were then added to the soil in 2 mL of deionized water, for a total water volume of 20 mL. The final concentration of the chemicals in water was 45 μM. The DMSO concentration varied from 0.1% to 0.8% (v/v) depending on the stock concentration of the chemical. The highest DMSO concentration was used as the DMSO control. The J2s were incubated in the soil and chemical for 24 hours, after which two- to three-week old tomato seedlings were transplanted into the soil (one plant per cell). […] The number of eggs from each plant root was counted on a dissection microscope using a haemocytometer, and the number of eggs per milligram of root was calculated by dividing the total egg number by the mass of the dried root material. […] An average percent effectiveness value was then calculated across the two different batches carried out on different days. […]

M. incognita J2 larvae = experiment: Meloidogyne incognita in vitro assays (J2 movement); format: in vivo; settings: 45 μM, 2 days, relative to DMSO control
Protocol: (§3) M. incognita (Kofoid & White) Chitwood Race 1 (originally isolated in Maryland) was used for all experiments, and was maintained on pepper (Capsicum annuum L.) cv. PA-136 in a greenhouse as previously described^64. Infective J2 juveniles were collected as described in ref.65. The microwell dose-response experiments were carried out similarly to previously described protocols^64, 66. In brief, 100 J2s, in 10 μL of deionized water, were added to the wells of 96-well polystyrene plates, after which 190 μL of deionized water containing dissolved chemical, or DMSO alone, was added to each well. The chemicals were tested at 45 μM, and the final concentration of DMSO in each well was 0.5% (v/v). The wells were covered with a plastic adhesive strip, and the lids of the plates were sealed with parafilm. The plates were incubated at 25° C. The mobile fraction of worms was quantified by counting the number of mobile and immobile worms after 2 days of incubation, and then dividing the number of mobile worms by the total number of worms in the well. Three technical replicates were performed for each treatment, and an average value for the mobile fraction of worms was calculated across the three replicates. The percent effectiveness at inhibiting nematode movement was calculated by dividing the average value for the chemical treatment by the average value for the DMSO control, then subtracting this value from 1, and then multiplying by 100.

M. chitwoodi [4] = experiment: Root-knot nematode M. chitwoodi mobility (Table 3); format: in vivo, Meloidogyne chitwoodi; settings: 45 μM, 2 days of chronic exposure
Protocol: as §3
M. chitwoodi race 1 (the strain commonly found in the pacific northwest of the United States) was used for all experiments, and was maintained on tomato plants (Solanum lycopersicum ‘Rutgers’) as previously described^73. The M. chitwoodi in vitro assays were performed identically to the M. incognita in vitro assays (see above).
as §2

tomato plants = experiment: Root mass of tomato plants in the infectivity assays; format: in vivo, Solanum lycopersicum; settings: 45 μM
Protocol: An M. incognita population originally collected from grape (Vitis vinifera) in Parlier, Calif., was used for all experiments, and they were maintained on tomato plants (Solanum lycopersicum ‘Rutgers’) as previously described^73. Infective J2 juveniles were collected as described in^73. For the infectivity assays, 90 grams of soil (1:1 sand:loam mix) was added to each cell of several 6-cell plastic garden packs. The soil was drenched with 18 mL of deionized water containing dissolved chemical or DMSO alone. 2,500 infective J2 juveniles were then added to the soil in 2 mL of deionized water, for a total water volume of 20 mL. The final concentration of the chemicals in water was 45 μM. The DMSO concentration varied from 0.1% to 0.8% (v/v) depending on the stock concentration of the chemical. The highest DMSO concentration was used as the DMSO control. The J2s were incubated in the soil and chemical for 24 hours, after which two- to three-week old tomato seedlings were transplanted into the soil (one plant per cell). Two replicates were performed for each chemical treatment, and four replicates were done for the DMSO controls. The whole experiment was replicated twice, in two different batches on two different days, for a total of four replicates for each chemical treatment, and eight replicates for the DMSO controls. Inoculated plants were grown for 8 weeks in a greenhouse, as described^73, under long-day conditions (16-h photoperiod) with 26/18° C. day/night temperatures. After 8 weeks, the plants were destructively harvested. The tops were removed and discarded, and roots were gently washed with water to remove adhering soil. Eggs were extracted by placing rinsed roots in 0.6% sodium hypochlorite and agitating at 300 rpm for 3 min. Roots were then rinsed over nested 250- and 25.4-μm sieves, with eggs collected from the latter and suspended in water. Roots were dried in a 65° C. oven for at least 24 hours, after which dry roots were weighed. The number of eggs from each plant root was counted on a dissection microscope using a haemocytometer, and the number of eggs per milligram of root was calculated by dividing the total egg number by the mass of the dried root material. An average was taken across the replicates performed on the same day, and then normalized to the DMSO control average. To calculate percent effectiveness at inhibiting reproduction, the normalized values were subtracted from 1, and then multiplied by 100. An average percent effectiveness value was then calculated across the two different batches carried out on different days.

What does the source list for Cc1csc2nc(-c3ccc(Cl)cc3)cn12 [Compound If]?
viability at 50 µM (C. elegans [1]): 19.8%; minimal effective concentration (C. elegans [2]): 25 µM and 6.2 µg/mL; % effectiveness at inhibiting reproduction of M. chitwoodi (M. chitwoodi [3]): 46.2%; % effectiveness at reducing M. incognita movement (M. incognita J2 larvae): 3.5%; RKN mobility (M. chitwoodi [4]): 0.6%; Normalized root mass (relative to DMSO control) (tomato plants): 1.3
